Patent US4822823A, “Aqueous preparation and method of preparation thereof” (priority 1986, dated 1989)
“Also recorded” adds a separate entry of the source. Where two headings read alike, the source gives them in different places.

How the values were obtained:
[1] = Stability test of compound (A) with α-cyclodextrin at varying pHs; format: physicochemical
Method: Stability test of compound (A) was performed in the following formula at varying pHs: […]
Purified Water amount totaling 1000 ml
Note: The data are represented in terms of persistence rate (%).

[2] = 25° C.; cited from earlier work
5-riboxygenase = settings: cited from earlier work
[3] = test system: production of SRS-A or LTB4; settings: cited from earlier work
[4] = test system: experimental allergic asthma; settings: IgG and IgE, Guinea pigs; cited from earlier work
[5] = test system: experimental allergic asthma; settings: IgE, rats; cited from earlier work
[6] = for enhancement of solubility of compound (A) (in words): phosphoric acid buffer pH 6.0
Method: The dissolution-assisting agents used as a control are β-cyclodextrin, γ-cyclodextrin, polyvinyl pyrrolidone (hereinbelow abbreviated as PVP), polyoxyethylene monostearate (hereinbelow abbreviated as MYS-40), polyoxyethylene sorbitan monooleate (hereinbelow abbreviated as TO-80), and polyoxyethylene cured castor oil (hereinbelow abbreviated as HCO-40, HCO-60).
Solubility was determined by dissolving the respective dissolution-assisting agents into 0.2 mole of phosphoric acid buffer solution (Na2 HPO4 NaH2 PO4, pH 6.0), then adding excessive amount of compound (A) and shaking the mixed solution at room temperature (15° C.~20° C.) for 5 days, centrifuging the solution, filtering the supernatant by use of cotton stoppers, and subsequently measuring the concentration of compound (A) contained in the filtrate with a high-speed liquid chromatography.

CC1=C(C)C(=O)C(CCCCC#CCCCC#CCO)=C(C)C1=O [Compound (A)] showed a persistence rate ([1]; 60° C.-3 days, pH 4.0, with α-cyclodextrin) of 101.2%, a persistence rate ([1]; 60° C.-3 days, pH 5.0, with α-cyclodextrin) of 102.6% and a persistence rate ([1]; 60° C.-3 days, pH 6.0, with α-cyclodextrin) of 102.5%. For the same molecule, the persistence rate ([1]; 60° C.-3 days, pH 7.0, with α-cyclodextrin) was 93.3%, the persistence rate ([1]; 60° C.-5 days, pH 4.0, with α-cyclodextrin) was 102.5% and the persistence rate ([1]; 60° C.-5 days, pH 5.0, with α-cyclodextrin) was 99.5%. It also gave a persistence rate ([1]; 60° C.-5 days, pH 6.0, with α-cyclodextrin) of 102.8%, a persistence rate ([1]; 60° C.-5 days, pH 7.0, with α-cyclodextrin) of 87.6% and a persistence rate ([1]; Room temp.-5 days, pH 4.0, with α-cyclodextrin) of 99.6%. For the same molecule, the persistence rate ([1]; Room temp.-5 days, pH 5.0, with α-cyclodextrin) was 103.0%, the persistence rate ([1]; Room temp.-5 days, pH 6.0, with α-cyclodextrin) was 99.4% and the persistence rate ([1]; Room temp.-5 days, pH 7.0, with α-cyclodextrin) was 99.1%. The solubility to water [2] was “less than 10 ng/ml”, the “5-riboxygenase inhibition (in words)” value (5-riboxygenase) was “selective inhibitor for 5-riboxygenase” and the “inhibition of production of SRS-A or LTB4 (in words)” value [3] was “inhibit the production of SRS-A or LTB4”. For the same molecule, the “effect on experimental allergic asthma (in words)” value [4] was “showing experimental allergic asthma” and the “effect on experimental allergic asthma (in words)” value [5] was “showing experimental allergic asthma”.
For OC[C@H]1O[C@@H]2O[C@H]3[C@H](O)[C@@H](O)[C@@H](O[C@H]4[C@H](O)[C@@H](O)[C@@H](O[C@H]5[C@H](O)[C@@H](O)[C@@H](O[C@H]6[C@H](O)[C@@H](O)[C@@H](O[C@H]7[C@H](O)[C@@H](O)[C@@H](O[C@H]1[C@H](O)[C@H]2O)O[C@@H]7CO)O[C@@H]6CO)O[C@@H]5CO)O[C@@H]4CO)O[C@@H]3CO [α-cyclodextrin], the “solubility-enhancing effect relative to phosphoric acid buffer” value ([6]; compound (A), versus phosphoric acid buffer having pH 6) was 1000 times and the “enhancement of solubility of compound (A) (in words)” value [6] was “remarkably enhances the solubility of compound (A) without impairing its stability; also recorded: highly advantageous effect; also recorded: prominent enhancement of solubility”.
With OC[C@H]1O[C@@H]2O[C@H]3[C@H](O)[C@@H](O)[C@@H](O[C@H]4[C@H](O)[C@@H](O)[C@@H](O[C@H]5[C@H](O)[C@@H](O)[C@@H](O[C@H]6[C@H](O)[C@@H](O)[C@@H](O[C@H]7[C@H](O)[C@@H](O)[C@@H](O[C@H]8[C@H](O)[C@@H](O)[C@@H](O[C@H]9[C@H](O)[C@@H](O)[C@@H](O[C@H]1[C@H](O)[C@H]2O)O[C@@H]9CO)O[C@@H]8CO)O[C@@H]7CO)O[C@@H]6CO)O[C@@H]5CO)O[C@@H]4CO)O[C@@H]3CO [γ-cyclodextrin, reference compound] the “enhancement of solubility of compound (A) (in words)” value [6] was “do not show any intended effect; also recorded: can hardly enhance the solubility”.
For dimethyl-β-cyclodextrin, the “solubility-enhancing effect relative to phosphoric acid buffer” value ([6]; pH 6) was 1000 times.
